# Experimental data published in patent publication US5525591A, “Endoparasiticidal compositions based on open-chain octadepsipeptides” (Bayer Aktiengesellschaft, priority 1993, dated 1996).
# Test system: Haemonchus contortus
# Test: In vivo nematode test Haemonchus contortus/sheep
# Conditions: sheep infected experimentally with Haemonchus contortus, treated after prepatency period; pure active compound applied orally and/or intravenously; dose at which nematode egg excretion with the faeces stopped completely
# Method: In vivo nematode test Haemonchus contortus/sheep
# The degree of effectiveness is determined by quantitatively determinating the nematode eggs excreted with the faeces before and after the treatment.
substance,measurement,value
tert-Butyl-N-Benzyl-N-propyl-L-leucyl-D-lactyl-N-^i -propyl-L-leucyl-D-3-phenyllactyl-N-^i propyl-L-leucyl-D-lactyl-N-^i propyl-L-leucyl-D-3-phenyllactate [Example 2],Dosis effectiva,10 mg/kg
